Experimental data: patent US9604931B2, “Nuclear receptor binding agents” (GTx, Inc., priority 2007, dated 2017)
“Also recorded” adds a separate entry of the source.

Experiments:
[1] = tested on: Carrageenan-induced paw edema; test: Carrageenan-induced paw edema; type: in vivo; conditions: per-oral, 1 hr prior to Carrageenan; measured 4 hours post-Carrageenan
Procedure: FIG. 14 depicts the effect of 12b on the edema volume which was induced by Carrageenan (i.e. Carrageenan-induced […] as an acute inflammation model).
To determine the anti-inflammatory effects of ER-β NRBAs in vivo, animal paws were injected with carrageenan, which elicits an acute local inflammatory response.

[2] = biological target: ERβ ligand binding domain (Homo sapiens, UniProt Q92731); test: Competitive [3H]-estradiol binding assay, ER-β (Example 21)
ERβ ligand binding domain, sequence (Q92731 whole entry, looked up, the tested form may be a part): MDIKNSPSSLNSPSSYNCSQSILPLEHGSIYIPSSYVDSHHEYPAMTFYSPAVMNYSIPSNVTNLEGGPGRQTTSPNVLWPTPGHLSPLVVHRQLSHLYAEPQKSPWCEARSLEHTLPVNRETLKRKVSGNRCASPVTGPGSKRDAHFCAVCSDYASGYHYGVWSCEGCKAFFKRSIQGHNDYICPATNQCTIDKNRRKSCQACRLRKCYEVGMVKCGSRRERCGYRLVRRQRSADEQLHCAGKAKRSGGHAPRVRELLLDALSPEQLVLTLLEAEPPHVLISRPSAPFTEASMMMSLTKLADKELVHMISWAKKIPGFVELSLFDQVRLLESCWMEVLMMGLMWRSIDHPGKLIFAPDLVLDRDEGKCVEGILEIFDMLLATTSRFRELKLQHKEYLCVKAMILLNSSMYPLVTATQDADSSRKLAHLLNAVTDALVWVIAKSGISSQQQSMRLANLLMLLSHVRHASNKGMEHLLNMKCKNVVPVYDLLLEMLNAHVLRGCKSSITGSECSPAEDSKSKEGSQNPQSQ
Procedure: (§1) ER binding affinity was determined via one of the following methods:
(§2) Briefly, the incubation mixture was filtered through a high affinity protein binding filter, and washed several times to remove any unbound radioactivity. The filter plate was air dried and sealed on the bottom.
(§3) Nonspecific binding was subtracted from total binding to yield specific binding.

[3] = biological target: ERα ligand binding domain (Homo sapiens, UniProt P03372); test: Competitive [3H]-estradiol binding assay, ER-α (Example 21); conditions: 100 nM of compound; read-out: Percent Inhibition of [3H]-Estradiol Binding to ER-α
ERα ligand binding domain, sequence (P03372 whole entry, looked up, the tested form may be a part): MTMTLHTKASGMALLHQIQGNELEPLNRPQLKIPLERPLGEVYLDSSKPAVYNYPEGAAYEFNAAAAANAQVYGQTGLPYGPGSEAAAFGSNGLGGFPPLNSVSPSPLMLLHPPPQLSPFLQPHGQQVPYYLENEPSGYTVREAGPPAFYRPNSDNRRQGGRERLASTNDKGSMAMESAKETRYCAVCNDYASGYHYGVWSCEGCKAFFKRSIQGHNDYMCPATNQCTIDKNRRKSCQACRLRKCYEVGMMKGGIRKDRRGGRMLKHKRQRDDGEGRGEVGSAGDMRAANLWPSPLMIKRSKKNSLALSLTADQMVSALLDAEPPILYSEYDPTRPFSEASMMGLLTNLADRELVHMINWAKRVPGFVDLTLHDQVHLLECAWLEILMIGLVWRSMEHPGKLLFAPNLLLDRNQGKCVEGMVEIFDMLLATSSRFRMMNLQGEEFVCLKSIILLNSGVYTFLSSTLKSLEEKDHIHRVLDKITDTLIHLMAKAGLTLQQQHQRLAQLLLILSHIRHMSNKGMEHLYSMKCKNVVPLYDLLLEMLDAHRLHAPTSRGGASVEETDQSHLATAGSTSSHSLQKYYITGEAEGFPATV
Procedure: as §1, §2, §3

ER-β = ER-β (Rattus norvegicus (Rat), UniProt Q62986); test: ER-β transactivation (ERE-LUC) in COS or 293 cells; type: cell-based
ER-β, sequence (Q62986 whole entry): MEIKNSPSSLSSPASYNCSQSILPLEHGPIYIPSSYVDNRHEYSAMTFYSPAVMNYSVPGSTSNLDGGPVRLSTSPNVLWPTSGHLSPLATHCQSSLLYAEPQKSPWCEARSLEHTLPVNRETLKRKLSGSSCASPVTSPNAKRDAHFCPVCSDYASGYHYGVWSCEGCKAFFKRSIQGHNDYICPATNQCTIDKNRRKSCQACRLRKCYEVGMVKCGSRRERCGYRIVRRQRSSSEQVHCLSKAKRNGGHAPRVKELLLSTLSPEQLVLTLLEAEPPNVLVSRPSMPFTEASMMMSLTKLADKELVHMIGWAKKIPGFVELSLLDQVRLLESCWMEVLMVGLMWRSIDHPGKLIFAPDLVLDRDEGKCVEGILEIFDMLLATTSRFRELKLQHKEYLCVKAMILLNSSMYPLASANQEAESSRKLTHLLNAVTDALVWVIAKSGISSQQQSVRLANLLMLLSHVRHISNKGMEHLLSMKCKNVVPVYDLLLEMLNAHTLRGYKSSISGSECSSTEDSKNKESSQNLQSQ

C-26 colon cancer cells = test: 3H thymidine incorporation, C-26 cells; type: cell-based; conditions: 3 days treatment
Procedure: (§4) The effects of treatment of an ER-β selective NRBA of this invention on cancer cell proliferation was examined using LNCaP prostate cancer cells and C-26 colon cancer cells. LNCaP or C-26 cells were plated in growth medium in 24 well and 6 well plates, respectively. LNCaP cells were treated for 6 days and C-26 cells were treated for 3 days at the indicated concentration. ^3H thymidine incorporation was measured at the end of treatment as an indicator of cell proliferation.

[4] = tested on: LNCaP cells and human prostate stromal cells xenograft; test: LNCaP-stromal cell xenograft tumor growth; type: in vivo, nude mice; conditions: 30 mg/kg/day for 21 days
Procedure: Prostate tumor xenografts were established with LNCaP cells and human prostate stromal cells in nude mice to establish the in vivo anti-proliferative effects of these ER-β NRBAs. A 4:1 ratio (based on cell number) of LNCaP:stroma cells was injected subcutaneously in nude mice and allowed to grow until they attained 100 mm^3 in volume, as measured by calipers. […] Tumor volumes were measured twice a week and percent tumor volume calculated, after 10, 14 and 21 days.

[5] = tested on: LNCaP prostate cancer cells; test: 3H thymidine incorporation, LNCaP cells; type: cell-based; conditions: 6 days treatment
Procedure: as §4

Cyp 3A and/or Cyp 2C9 = test: Cyp inhibition (data not shown); type: in vitro ADME
ER-α = ER-α (Rattus norvegicus (Rat), UniProt P06211); type: cell-based; conditions: 100 nM compound compared to 1 nM estradiol
Procedure: COS or 293 cells were plated in DME without phenol red+10% cs FBS at 90,000 cells per well in 24 well plates, and were transfected with 0.25 μg of the vector “ERE-LUC”, where a firefly luciferase gene was driven by two estrogen responsive elements and 0.02 μg of the control CMV-LUC, Renilla where a luciferase gene was driven by a CMV promoter. […] All the receptors were cloned from rat tissue into the PCR3.1 vector backbone. Twenty four hours post transfection, cells were treated with compounds of this invention, estrogen, DHT, and other NRBAs or combinations thereof. Cells were harvested 48 hrs after transfection, and assayed for firefly and Renilla luciferase activity.

[6] = tested on: Rat Aortic Smooth Muscle Cells (RASMC); test: RASMC cell proliferation assay (WST-1); type: cell-based; conditions: 10 μM and 30 μM
Procedure: EC50 values were calculated using WinNonLin 5.0.1 using the inhibitory effect sigmoid Emax model.

uterus = test: Uterotropic assay; conditions: 10 mg/kg/day orally, 3 days
Procedure: Statistical differences among groups were evaluated by one-way ANOVA. Rats were treated for 3 consecutive days and then sacrificed 24 h after the last dose. The body of the uterus was cut just above its junction with the cervix and at the junction of the uterine horns with the ovaries. The uterus was weighed with and without intrauterine fluid. Statistical comparisons were made between the weights of empty uteri.

O=c1c2ccc(O)cc2c(Br)cn1-c1ccc(O)cc1 [12b, 4-bromo-6-hydroxy-2-(4-hydroxyphenyl)-isoquinolin-1(2H)-one]
Reduction in paw edema [1]: 53% | Ki Ratio (ER-α/ER-β) [2]: 20 | Ki ([2]; read-out: ER-β binding constant (Ki)): 49 nM | inhibition at 0.1 µM ([2]; read-out: Percent Inhibition of [3H]-Estradiol Binding to ER-β): 53.6% | inhibition at 0.1 µM [3]: 0% | ER-β agonist activity (ER-β): ER-β agonists; also recorded: ER-β agonist activity | activation at 0.1 µM (ER-β; HEK293, 48 h, read-out: Estradiol activity at 100 nM of NRBA, ER-β, 100 nM compound compared to 1 nM estradiol): 79% | Growth of C-26 colon cancer cells (C-26 colon cancer cells): significantly inhibited | Xenograft tumor growth [4]: inhibited the growth of tumor significantly | Growth of LNCaP prostate cancer cells [5]: significantly inhibited | Inhibition of Cyp 3A and/or Cyp 2C9 (Cyp 3A and/or Cyp 2C9): exception | Estradiol activity at 100 nM of NRBA, ER-α (ER-α): 31.2%

CC/C(=C(\c1ccccc1)c1ccc(OCCN(C)C)cc1)c1ccccc1 [Tamoxifen, reference compound]
Toxicity to RASMC (cell numbers reduced compared to day 0) [6]: toxicity | Uterine weight / proliferation of uterus (uterus): stimulated the proliferation of uterus significantly
